Laboratory results published in patent US20050261290A1, “Novel compounds of proline and morpholine derivatives” (priority 2004, published 2005).
Read-outs that look alike come from different tables or passages of the source.

How the values were obtained:
normal subjects = settings: ingestion; cited from earlier work
bone nodule formation = settings: cited from earlier work
healthy human volunteers = healthy human volunteers treated with carbenoxolone; cited from earlier work
human 11b-hsd-1 = human 11b-hsd-1 (Homo sapiens, UniProt P28845); experiment: Inhibition constant Ki of human 11b-hsd-1 (3H-cortisone to 3H-cortisol conversion, HPLC); assay type: biochemical; settings: for Ki: apparent Ki, read-out: Ki app
Chain of human 11b-hsd-1 (P28845 whole entry): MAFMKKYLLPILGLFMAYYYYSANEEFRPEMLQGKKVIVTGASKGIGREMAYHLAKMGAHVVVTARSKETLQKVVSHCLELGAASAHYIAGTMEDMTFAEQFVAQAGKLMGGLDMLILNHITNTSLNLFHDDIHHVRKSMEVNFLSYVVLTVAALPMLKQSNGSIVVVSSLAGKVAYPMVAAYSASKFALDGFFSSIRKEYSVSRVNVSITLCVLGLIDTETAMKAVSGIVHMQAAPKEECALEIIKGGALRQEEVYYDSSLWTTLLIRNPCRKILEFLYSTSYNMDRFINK
Procedure: In each well, varying amounts of compounds are incubated with a fixed amount of 11b-hsd-1 (4 nM) and NADPH (500 μM) for 30 to 40 min at room temperature in the assay buffer. The enzyme concentration was determined by titration using reversible tight-binding inhibitors. […] The area of 3H-cortisol is calculated and plotted versus time to determine a linear velocity. […] Where vi, and vo are the rates of cortisol formation in the presence and in the absence of inhibitor, respectively, I is the inhibitor concentration and E is the 11 b-hsd-1 concentration in the assay buffer. […] NADPH, Glucose-6-Phosphate (G6P), and Glucose-6-Phosphate dehydrogenase was purchased from Sigma.

Compound	inhibition at 0.1 µM (human 11b-hsd-1; compound at 0.1 μM) [%]	Ki (human 11b-hsd-1; human 11b-hsd-1) [nM]	inhibition at 0.1 µM (human 11b-hsd-1; 0.1 μM compound) [%]	Ki (human 11b-hsd-1) [nM]	other results
CC1(C)[C@@H](OC(=O)CCC(=O)O)CC[C@]2(C)[C@H]3C(=O)C=C4[C@@H]5C[C@@](C)(C(=O)O)CC[C@]5(C)CC[C@@]4(C)[C@]3(C)CC[C@@H]12 [carbenoxolone]	–	–	–	–	reduction of the intraocular pressure (normal subjects): 20%; negative effect of glucocorticoid on bone nodule formation (bone nodule formation): blocked; hepatic insulin sensitivity (healthy human volunteers): improved
CC1(C)CC(NC(=O)C2COCCN2Cc2ccccc2)CC(C)(C)C1 (centres unmarked) [Example 186]	100	1	–	–	–
CC(C)Oc1ccccc1O[C@@H]1CN[C@H](C(=O)NC2C3CC4CC(C3)CC2C4)C1 (some centres unmarked) [Example 364]	–	–	100	4.6	–
CN(C(=O)[C@H]1CCCN1Cc1ccc(Cl)cc1)C1CCCCC1 [Example 191]	83.7	28	–	–	–
CN(C(=O)C1COCCN1Cc1ccccc1)C1CCCCC1 (centres unmarked) [Example 177]	92.2	18	–	–	–
CC(C)CN1CCC(CN2CCOC[C@@H]2C(=O)NC2C3CC4CC(C3)CC2C4)CC1 (some centres unmarked) [Example 74]	90	–	–	–	–
CC(C)CN1CCOC[C@@H]1C(=O)N[C@H](C)c1ccc(Cl)cc1 [Example 317]	–	–	91.1	8.72	–
Cc1cc(C)cc(O[C@@H]2CN[C@H](C(=O)NC3C4CC5CC(C4)CC3C5)C2)c1 (some centres unmarked) [Example 347]	–	–	96.6	3.3	–
CN(C(=O)C1CCCCN1Cc1ccc(Cl)cc1)C1CCCCC1 (centres unmarked) [Example 193]	–	–	100	14	–
O=C(NC1C2CC3CC(C2)CC1C3)[C@H]1COCCN1Cc1ccccn1 (some centres unmarked) [Example 67]	100	1	–	–	–
CC(C)(C)OC(=O)N1CCN(CC2CCCC2)[C@@H](C(=O)NC23CC4CC(CC(C4)C2)C3)C1 [Example 161]	8.7	–	–	–	–
O=C(NC1CCCCC1)[C@H]1C[C@@H](O)CN1CC1CCCC1 [Example 30]	63	–	–	–	–
O=C(NC1C2CC3CC(C2)CC1C3)[C@@H]1C[C@H](Oc2ccc(F)cc2)CN1 (some centres unmarked) [Example 321]	–	–	100	1	–
CCOc1ccccc1CNC(=O)[C@H]1COCCN1CC(C)C [Example 35]	82	22.6	–	–	–
O=C(NC1C2CC3CC(C2)CC1C3)[C@@H]1C[C@H](Oc2cc(F)c(F)c(F)c2)CN1 (some centres unmarked) [Example 362]	–	–	100	1.1	–

Continued, in another order:

inhibition at 0.1 µM (human 11b-hsd-1; compound at 0.1 μM) [%]	Ki (human 11b-hsd-1; human 11b-hsd-1) [nM]	inhibition at 0.1 µM (human 11b-hsd-1; 0.1 μM compound) [%]	Ki (human 11b-hsd-1) [nM]	Compound	other results
100	–	–	–	CCCN1CCC[C@@H]1C(=O)NC12C3C4C1C1C2C3C41C (some centres unmarked) [Example 123]	–
94	3.6	–	–	CC(C)CN1CCC[C@@H]1C(=O)NCc1ccccc1 [Example 4]	–
94	13.2	–	–	CCOc1ccccc1CNC(=O)[C@H]1CCCN1CC1CCCC1 [Example 54]	–
86	17	–	–	NC(=O)CN1CCC[C@@H]1C(=O)NC1C2CC3CC(C2)CC1C3 (some centres unmarked) [Example 19]	–
–	–	84.7	35	Cc1ccccc1CNC(=O)[C@H]1CCCN1CCc1ccccc1 [Example 270]	–
–	–	100	1	N#Cc1ccc(CN2CCC[C@@H]2C(=O)NC23CC4CC(CC(C4)C2)C3)cc1 [Example 254]	–
–	–	90	189	O=C(NCc1ccccc1)[C@H]1CCCN1CC1CC1 [Example 224]	–
–	–	100	12	COc1ccccc1CNC(=O)[C@H]1CCCN1Cc1ccc(Cl)cc1 [Example 267]	–
–	–	86.5	10	Cc1ccccc1CNC(=O)[C@H]1CCCN1CCC(F)(F)F [Example 264]	–
–	–	77.6	85	O=C(NCc1ccccc1F)[C@H]1CCCN1Cc1ccccc1 [Example 212]	–
–	–	82.7	59	O=C(NCc1ccc(F)cc1)[C@H]1CCCN1Cc1ccccc1 [Example 214]	–
86	11	–	–	CCCN1CCC[C@@H]1C(=O)NCC1CCCC1 [Example 94]	–
100	–	–	–	CC(C)(C)OC(=O)N1CCC(CN2CCC[C@@H]2C(=O)NC2C3CC4CC(C3)CC2C4)C1 (some centres unmarked) [Example 114]	–
–	–	91.4	5.8	CCCN1CCC[C@@H]1C(=O)N[C@@H]1CCc2ccccc21 [Example 286]	–
–	–	84.6	171	CCCN1CCC[C@@H]1C(=O)NCc1ccccc1 [Example 217]	–
